Measurements as given in patent US6893829B2, “Human leukocyte 12-lipoxygenase and its role in the pathogenesis of disease states” (City of Hope, priority 1992, dated 2005).

Tests used:
[1] = test system: MO binding to HAEC; experiment: Monocyte binding to human aortic endothelial cells; assay type: cell-based
Protocol: The rate of atherosclerosis is accelerated in humans with diabetes mellitus (DM). Applicants recently published evidence that high glucose (HG) exposure of human aortic endothelial cells (HAEC) selectively increases monocyte (MO) but not neutrophil binding (56). HG exposure to EC can increase arachidonic acid (AA) release and lipoxygenase (LO) production formation. In the current study, applicants evaluated the role of 12- and 15-LO products in MO binding to HAEC. Culture of HAEC in HG (25 mM) for two passages increased MO binding compared to cells maintained in 5.5 mM glucose (239±30 cells/field HG vs 111±7, p<0.01). Phenidone (10^−6M), an inhibitor of the 12-LO pathway (50 percent inhibition of HG-induced binding, p<0.05). […] 12(S)-HETE added to HAEC cultured in 5.5 mM glucose increased MO binding (66±6 cells/field control vs 114±4 12-HETE 10^−10M, p<0.01). […] In summary, (1) elevated glucose increases MO binding to HAEC and this effect can be reduced by blockade of the LO pathway; (2) 12 but not 15-LO products, can increase MO binding.

[2] = test system: MAP kinase activity; experiment: AII- and 12-HETE-induced mitogenic (MAP kinase) activities with 12-LO inhibitors; assay type: cell-based, Chinese hamster
Protocol: It has been discovered that the administration of AII results in biphasic activation of MAP kinase (all of the MAP kinase experiments were conducted in CHO-AT1a cells—AII receptor AT1a cDNA transfected Chinese hamster ovary cells). […] Thus, the administration of a 12-LO inhibitor decreases AII- and/or 12-HETE-induced MAP kinase activity, thereby decreasing the effects which AII and/or 12-HETE have on cell growth and development.

[3] = test system: MCF-7 cells; experiment: Proliferation of MCF-7 cells; assay type: cell-based, human; settings: baicalein 10 μM, CDC 10^−5M, NDGA 30 μM, ibuprofen 10^−5M
[4] = test system: 12-LO activity in HSMC; experiment: 12-HETE release and cell-associated 12-HETE in HSMC (HPLC/RIA); assay type: cell-based, human; settings: baicalein 10^−5 mol/L, data not shown
Protocol: FIG. 3A illustrates the effect of AII on 12-HETE release by HSMC. HSMC were grown to confluency. Serum was removed and cells were incubated in media 199 containing 0.4% fetal bovine serum (FBS) and 0.2% BSA for 18 hours. Cells were then washed with DME media and incubated for 20 minutes in DME media containing 0.2% BSA. AII was added to the cells for five and ten minutes at the concentrations of 10^−9 and 10^−8 mol/L. Media were collected for HETE assay. • *p<0.05 vs control n=4
FIG. 3B illustrates the effect of AII on cell-associated 12-HETE levels in HSMC. After collecting supernatants, cells were washed with ice-cold PBS and harvested by scraping for the assay of cell-associated HETEs. • *p<0.02 vs control n=4
HSMC and HAEC monolayers were washed twice with ice-cold PBS and then processed for RNA extraction or western analysis as described below. For hydroxyeicosatetraenoic acid (HETE) assay, approximately 24 hours prior to an experiment, the medium was replaced with medium 199 containing 0.4% FBS and 0.2% BSA.
These assays were performed using previously published methods (10,11). Briefly, 12- and 15-HETE are extracted from supernatants and cells on C18 mini columns (Analytichem International, CA) and measured using our validated reverse phase gradient HPLC and (RIA) methods.
Another major aspect of this invention is the discovery that AII increases the activity and expression of 12-LO mRNA and protein in HSMC.

[5] = test system: beta sub-unit of the human insulin receptor; experiment: Insulin receptor phosphorylation in rat-1-fibroblasts containing the human insulin receptor; assay type: cell-based; settings: baicalein 10^−6M, last 24 hours
Protocol: 7. Baicalein, a selective 12-LO inhibitor, can prevent glucose-induced insulin resistance. To perform these studies, applicants cultured rat-1-fibroblasts that have been engineered to contain the human insulin receptor for ten days in high glucose (25 mM). For the last 24 hours, the cells were cultured with 10^−6M baicalein. The marked bands represent the phosphorylated beta sub-unit of the human insulin receptor (FIG. 23). As the band becomes lighter, it represents reduced insulin action. Lane 1 represents the insulin receptor phosphorylation in normal glucose (5.5 mM) vs the reduced insulin action in lane 5 (25 mM glucose).

[6] = Calcium gluconate infusion: urinary PGI2 and 12-HETE; assay type: in vivo, human
Excerpt: Vascular tissue from diabetic animals and man metabolize arachidonic acid differently from normals. PGI2 is a vasodilator, antithrombolic, and renin secretagogue while 12-hydroxyeicosatetraenoic acid (12-HETE) is proinflammatory and inhibits cyclooxygenase (CO). Applicants earlier reported a prostacyclin (PGI2) deficiency in diabetics with hyporeinemic hypoaldosteronism (HH) (46). Applicants explored the production of the CO product, PGI2 and the lipoxygenase (LO) product, 12-HETE in NIDDM patients with normal renal function (NR), those with microalbuminuria (MiA0, macroabluminuria (MaA) and HH patients. PGI2 (6 keto PGF^1) and 12-HETE were measured in urine by HPLC followed by RIA using published methods. Results are:
Low dose calcium infusions have been previously shown to increase PGI2, probably via activation of tissue phospholipases. […] This supports the concept that a defect in prostacyclin formation exists in NIDDM.

[7] = test system: 12-HETE in L6 muscle cells; experiment: 12-HETE in L6 muscle cells; assay type: cell-based, rat; settings: n = 2
Protocol: 6. […] L6 muscle cells are skeletal muscle cells from rats which have been used to investigate the mechanisms of insulin action. When L6 muscle cells are incubated in xylose (5.5, mM), they are much more responsive to insulin when compared to cells in regular glucose (5.5 mM) or high glucose (25 mM). […] Thus, elevated 12-Lipoxygenase products, such as 12-HETE, appear to play an important role in reduced insulin metabolic actions caused by high glucose.

[8] = test system: VEGF protein in MCF-7 cells; experiment: VEGF protein expression in breast cancer cells (immunoblot); assay type: cell-based, human; settings: MCF-7, 24 hours
Protocol: FIG. 8 illustrates the dose-dependent effect of platelet-derived growth factor (PDGF) on vascular endothelial growth factor (VEGF) protein (42 kD) expression in MCF-7 breast cancer cells. Nearly confluent MCF-7 cells were serum starved for 24 hours by placing in DME medium+0.4% FCS and 0.2% BSA. This medium was then freshly replaced and the cells incubated for another 24 hours with PDGF. At the end of the incubation, the cell monolayers were washed with ice-cold PBS, scraped into PBS and pelleted by centrifugation. The cell pellets were then lysed and equal amounts of protein (50 μg) subjected to electrophoresis and immunoblotting to detect VEGF using a specific antibody from Santa Cruz Biotechnology. Detection was by a chemiluminiscent technique.
FIG. 9 illustrates the effect of epidermal growth factor (EGF) and the 12-lipoxygenase product 12-HETE on VEGF protein expression in the MCF-7 breast cancer cell line MCF-7. MCF-7 cells were treated with EGF and 12-HETE for 24 hours and VEGF protein identified as described in the legend to FIG. 8.

[9] = test system: 12-LO in RINm5F cells; experiment: 12-LO protein, mRNA and activity in RINm5F cells; assay type: cell-based, rat
Protocol: FIG. 12 illustrates a western immunoblot of proteins isolated from the insulin producing rat beta cell line, RINm5F showing the effect of interleukin-1β on 12-LO protein expression. In these studies, 25 μg of protein was isolated from the cells grown for 16 hours in reduced serum-containing medium 0.4% alone or along with IL-1β (0.1 ng/ml).
(§1) Applicants have discovered that direct addition of the 12-LO products 12-S-HETE or 12-HPETE directly decreases cellular growth as reflected by decreased ^3H thymidine incorporation or DNA synthesis in the rat pure beta cell line RIN-M5F.
(§2) It has been discovered that IL-1β induces 12-LO protein and mRNA expression in RIN-M5F cells and 12-LO mRNA expression in rat islets.

[10] = test system: leukocyte-type 12-LO in PVSMC; experiment: 12-LO activity, mRNA and protein in PVSMC; assay type: cell-based, porcine; settings: 24 hours
Protocol: FIG. 14A illustrates the dose-dependent effect of the cytokine interleukin-1β on 12-LO mRNA expression in porcine aortic smooth muscle cells (PVSMC). Confluent PVSMC growth in normal glucose medium was serum depleted for 24 hours by placing in medium+0.2% BSA+0.4% FCS. This medium was then freshly replaced along with IL-1β and the cells incubated for a further 24 hours. At the end of the incubation, total RNA was extracted from the cells using RNA-STAT. This RNA was the subjected to reverse-transcriptase polymerase chain reaction (RT-PCR) to detect and quantitate leukocyte-type 12-LO mRNA (333 bp PCR product, upper panel) using our well established techniques. The expression of GAPDH mRNA 284 bp, lower panel) was used as an internal control for PCR and for quantitation.
FIG. 14B illustrates the effect of the cytokine IL-4 on 12-LO mRNA expression in PVSMC. The ells were treated for 24 hours with IL-4 and 12-LO mRNA quantitated as described in the legend to FIG. 14A. It is clearly seen that IL-4 also increases 12-LO mRNA expression similar to IL-1β.
FIG. 14C illustrates the effect of the cytokine IL-8 on 12-LO mRNA expression in PVSMC. The cells were treated for 24 hours with IL-8 and 12-LO mRNA quantitated as described under legend 14A.
The cells were cultured in DME (normal glucose) and treated for 24 hours±cytokines in medium containing 0.2% BSA and 0.4% serum. Intracellular 12-LO enzyme activity was measured by HPLC, leukocyte-type 12-LO protein expression by immunoblotting and 12-LO mRNA by a specific reverse transcriptase polymerase chain reaction (RT-PCR). […] Treatment with these cytokines (0.5-5 ng/ml) also led to an increase (1.4-2.5-fold) in 12-LO protein expression 72 kD). In addition, all three cytokines (2.5 ng/ml) could induce a significant increase in PVSMC DNA synthesis (1.280.08, 1.67±0.11 and 1.3±0.07 fold increase in ^3H thymidine incorporation with IL-1, -4, and -8 respectively, p<0.01).

[11] = test system: 12-LO in rat pancreatic islets; experiment: 12-HETE production and 12-LO mRNA in rat pancreatic islets; assay type: cell-based
Excerpt: as §1, §2

[12] = test system: VEGF in vascular smooth muscle cells (VSMC); experiment: VEGF protein, mRNA and secretion in VSMC (Western, Northern, EIA); assay type: cell-based, Porcine and human
Protocol: In addition to the work reflected in FIGS. 8-10, it has now been discovered that AII, 12-HETE and hyperglycemia (HG) increase VEGF production in vascular smooth muscle cells (VSMC). Porcine and human VSMC were cultured for at least two passages under normal glucose (NG, 5.5 mM) or under HG conditions. VEGF protein expression was determined by Western blotting and VEGF mRNA by Northern blots. HG alone increased the level of VEGF mRNA (2.8-fold) and protein (3.2-fold). […] In addition, HG increased the secretion of VEGF into the medium as measured by a specific EIA (56.2±4 ng/ml NG vs 73±5 HG, p<0.02).

[13] = NIDDM patients with microalbuminuria
[14] = normal subjects, three hour infusion

In the case of 12(R)-Hydroxyeicosatrienoic acid, the “lowest concentration showing effects on MO binding” value [1] is reported as 10^−12 M.
With N#C/C(=C\c1ccc(O)c(O)c1)C(=O)OC/C=C/c1ccccc1 [CDC] the “AII- and 12-HETE-induced mitogenic activities” value [2] was “dose-dependently reduce” and the “proliferation of MCF-7 cells” value [3] was “significantly inhibited”.
For O=c1cc(-c2ccccc2)oc2cc(O)c(O)c(O)c12 [baicalein], the “12-HETE levels in response to AII” value [4] was “could be reduced”, the “insulin receptor phosphorylation in 25 mM glucose” value [5] was “restoration of insulin receptor phosphorylation” and the “AII- and 12-HETE-induced mitogenic activities” value [2] was “dose-dependently reduce”. For the same molecule, the “proliferation of MCF-7 cells” value [3] was “significantly inhibited”.
With calcium gluconate the 12-HETE [6, 13] was “further stimulation”, the PGI2 [6, 13] was “no increase” and the 12-HETE [6, 14] was “highly significant increase”. For the same molecule, the PGI2 [6, 14] was “highly significant increase”.
With O=C[C@H](O)[C@@H](O)[C@H](O)CO [Xylose, xylose] the “12-HETE in the cells” value ([7]; xylose 5.5 mM) was 398 pg/total cells and the “12-HETE release in the media” value ([7]; xylose 5.5 mM) was 53.2 pg/mL.
For CCCCC[C@H](O)/C=C/C=C\C/C=C\C/C=C\CCCC(=O)O [15(S)-HETE], the “MO binding to HAEC” value ([1]; 15(S)-HETE 10^−6 to 10^−12M) was “did not stimulate”.
With PDGF the VEGF protein expression [8] was “dose-dependent increase”.
In the case of O=C1CCN(c2ccccc2)N1 [Phenidone], the inhibition at 1 µM ([1]; Homo sapiens, Phenidone 10^−6M, read-out: inhibition of HG-induced MO binding) is reported as 50%.
For IL-1β: cytokine interleukin-1β, the “increase in 12-LO protein expression” value ([9]; IL-1β 0.1 ng/ml, 16 hours) was 2 fold, the “12-LO pathway activity (radioimmunoassay for 12-HETE)” value ([9]; RIN-M5F) was “increased 12-LO pathway activity” and the “12-LO mRNA expression (competitive PCR)” value ([9]; RIN-M5F, 16 hours) was “concomitant increase”. For the same molecule, the “increase in leukocyte 12-LO protein expression” value ([9]; human IL-1B at 0.2 ng) was “approximately two”, the “increase in 12-HETE HPLC peak (12-LO enzyme activity)” value ([10]; 2.5 ng/ml) was 51% and the “12-LO mRNA expression in PVSMC” value ([10]; FIG. 14) was “dose-dependent increase”. For the same molecule, the “12-LO mRNA and enzyme activity in purified Sprague-Dawley rat islets” value [11] was “increased expression of 12-LO mRNA and enzyme activity” and the “immunoreactive release of 12-S-HETE” value ([11]; IL-1B 2.5 ng/ml, basal 92) was 250 pg/ml/40 islets.
With O=C[C@H](O)[C@@H](O)[C@H](O)[C@H](O)CO [HG, glucose] the MO binding ([1]; HAEC in HG 25 mM for two passages, 5.5 mM glucose 111±7) was 239±30 cells/field, the “level of VEGF mRNA” value ([12]; HG alone vs NG 5.5 mM) was 2.8 fold and the “level of VEGF protein” value ([12]; HG alone vs NG 5.5 mM) was 3.2 fold. The “secretion of VEGF into the medium (EIA)” value ([12]; HG, NG 56.2±4) was 73 ± 5 ng/mL, the “12-HETE in the cells” value ([7]; high glucose 25 mM) was 620 pg/total cells and the “12-HETE release in the media” value ([7]; high glucose 25 mM) was 110.3 pg/mL. The “12-HETE in the cells” value ([7]; regular glucose 5.5 mM) was 472 pg/total cells and the “12-HETE release in the media” value ([7]; regular glucose 5.5 mM) was 101.8 pg/mL.
For CC(Cc1ccc(O)c(O)c1)C(C)Cc1ccc(O)c(O)c1 (stereo not shown) [NDGA], the “proliferation of MCF-7 cells” value [3] was “significantly inhibited”.
With CC(C)Cc1ccc(C(C)C(=O)O)cc1 (stereo not shown) [ibuprofen] the “proliferation of MCF-7 cells” value [3] was “not”.
